Test results as given in ChEMBL document CHEMBL1149919, “Inhibition of human rhinovirus 3C protease by homophthalimides” (Bioorg Med Chem Lett, 1997).

How the values were obtained:
[1] = Cytotoxic effect against HeLa cell line measured by XTT assay; assay type: cell-based; conditions: human, HeLa cells; read-out: TC50 (the source's name)
[2] = molecular target: T1, Human rhinovirus A protease (Human rhinovirus sp., UniProt Q4U254); assay: The compound was tested for the inhibitory activity against HRV-14 (human rhinovirus) Protease 3C
T1 sequence (Q4U254 whole entry): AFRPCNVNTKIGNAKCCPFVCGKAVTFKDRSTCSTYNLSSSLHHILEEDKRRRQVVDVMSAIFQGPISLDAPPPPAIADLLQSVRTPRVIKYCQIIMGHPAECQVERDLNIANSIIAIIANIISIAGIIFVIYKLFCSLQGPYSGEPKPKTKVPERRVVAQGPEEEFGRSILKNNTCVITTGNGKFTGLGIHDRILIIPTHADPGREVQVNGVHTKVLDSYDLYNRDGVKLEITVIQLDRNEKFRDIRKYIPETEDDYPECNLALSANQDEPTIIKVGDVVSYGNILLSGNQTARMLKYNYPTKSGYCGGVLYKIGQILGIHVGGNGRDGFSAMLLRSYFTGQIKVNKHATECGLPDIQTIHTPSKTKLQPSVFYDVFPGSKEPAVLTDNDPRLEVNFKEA

HeLa = assay: Antiviral activity in a one-cycle viral replication assay against HRV-14 (human rhinovirus) infected HeLa cells; assay type: functional, cell-based
[3] = molecular target: T2, Human rhinovirus A protease (Human rhinovirus sp.) (UniProt Q4U254); assay: Inhibition of Protease 3C of HRV-14 (human rhinovirus); design: concentration or dose not given beside the values; conditions: Rhinovirus B; concentration not given here
T2 sequence (whole entry): T1 sequence (Q4U254 whole entry)

[4] = Therapeutic index was determined; conditions: read-out: TI

Compound | CC50 [1] [µM] | IC50 [2] [µM] | IC50 (HeLa) [µM] | inhibition [3] [%] | selectivity ratio [4]
CN1C(=O)c2ccccc2C(CC(=O)c2ccc(F)cc2)C1=O (stereo unspecified) | > 100 | 41.1 | > 10 | 72 | –
CS(=O)(=O)CCCN1C(=O)c2ccccc2C(CC(=O)c2ccccc2)C1=O (stereo unspecified) | > 100 | 25 | > 10 | 70 | –
CS(=O)(=O)CCN1C(=O)Cc2ccccc2C1=O | – | – | – | 6 | –
CSCCN1C(=O)Cc2ccccc2C1=O | – | – | – | 13 | –
C[S+]([O-])CCN1C(=O)Cc2ccccc2C1=O (stereo unspecified) | – | – | – | 19 | –
CSCCCN1C(=O)Cc2ccccc2C1=O | – | – | – | 16 | –
CCOC(=O)CCN1C(=O)c2ccccc2C(C(C)=O)C1=O (stereo unspecified) | – | – | – | 8 | –
O=C(O)CCN1C(=O)Cc2ccccc2C1=O | – | – | – | 0 | –
CCOC(=O)CCN1C(=O)Cc2ccccc2C1=O | – | – | – | 13 | –
CSCCCN1C(=O)c2ccccc2C(CC(=O)c2ccccc2)C1=O (stereo unspecified) | 63 | 131 | > 10 | 35 | –
CN1C(=O)Cc2ccccc2C1=O | – | – | – | 14 | –
NC(=O)CCN1C(=O)Cc2ccccc2C1=O | – | – | – | 11 | –
CCOC(=O)CCN1C(=O)c2ccccc2C(CC(=O)c2ccccc2)C1=O (stereo unspecified) | > 100 | 55.3 | 6 | 71 | 16.7
CS(=O)(=O)CCN1C(=O)c2ccccc2C(CC(=O)c2ccccc2)C1=O (stereo unspecified) | 70.5 | 22.1 | 8.5 | 100 | 8.3
